Calls of active or inactive are those of the source. How the calls were made is not given here.
System: CCRIS mutagenicity, Ames/micronucleus/aberration tests
Test: CCRIS mutagenicity studies
[1] = Test System: AMES SALMONELLA TYPHIMURIUM, Strain/Indicator: TA97, Metabolic Activation: NONE, Method: PREINCUBATION
[2] = Test System: AMES SALMONELLA TYPHIMURIUM, Strain/Indicator: TA100, Metabolic Activation: NONE, Method: PREINCUBATION
[3] = Test System: AMES SALMONELLA TYPHIMURIUM, Strain/Indicator: TA1535, Metabolic Activation: NONE, Method: PREINCUBATION
[4] = Test System: AMES SALMONELLA TYPHIMURIUM, Strain/Indicator: TA102, Metabolic Activation: NONE, Method: PREINCUBATION
[5] = Test System: AMES SALMONELLA TYPHIMURIUM, Strain/Indicator: TA98, Metabolic Activation: NONE, Method: STANDARD PLATE
[6] = Test System: AMES SALMONELLA TYPHIMURIUM, Strain/Indicator: TA100, Metabolic Activation: NONE, Method: STANDARD PLATE

`C=C(C)C(=O)OCCCCCCCC` was tested, and the mutagenic call (Test System: AMES SALMONELLA TYPHIMURIUM, Strain/Indicator: TA97, Metabolic Activation: HAMSTER, LIVER, S-9, AROCLOR 1254 (10 OR 30%), Method: PREINCUBATION) was “inactive; negative”, the mutagenic call [1] was “inactive; negative” and the mutagenic call (Test System: AMES SALMONELLA TYPHIMURIUM, Strain/Indicator: TA97, Metabolic Activation: RAT, LIVER, S-9, AROCLOR 1254 (10 OR 30%), Method: PREINCUBATION) was “inactive; negative”. For the same compound, the mutagenic call (Test System: AMES SALMONELLA TYPHIMURIUM, Strain/Indicator: TA98, Metabolic Activation: HAMSTER, LIVER, S-9, AROCLOR 1254 (10%), Method: PREINCUBATION) was “inactive; negative”, the mutagenic call (Test System: AMES SALMONELLA TYPHIMURIUM, Strain/Indicator: TA98, Metabolic Activation: HAMSTER, LIVER, S-9, AROCLOR 1254 (30%), Method: PREINCUBATION) was “inactive; negative” and the mutagenic call (Test System: AMES SALMONELLA TYPHIMURIUM, Strain/Indicator: TA98, Metabolic Activation: NONE, Method: PREINCUBATION) was “inactive; negative”. For the same compound, the mutagenic call (Test System: AMES SALMONELLA TYPHIMURIUM, Strain/Indicator: TA98, Metabolic Activation: RAT, LIVER, S-9, AROCLOR 1254 (10%), Method: PREINCUBATION) was “inactive; negative”, the mutagenic call (Test System: AMES SALMONELLA TYPHIMURIUM, Strain/Indicator: TA98, Metabolic Activation: RAT, LIVER, S-9, AROCLOR 1254 (30%), Method: PREINCUBATION) was “inactive; negative” and the mutagenic call (Test System: AMES SALMONELLA TYPHIMURIUM, Strain/Indicator: TA100, Metabolic Activation: HAMSTER, LIVER, S-9, AROCLOR 1254 (10 OR 30%), Method: PREINCUBATION) was “inactive; negative”. For the same compound, the mutagenic call [2] was “inactive; negative”, the mutagenic call (Test System: AMES SALMONELLA TYPHIMURIUM, Strain/Indicator: TA100, Metabolic Activation: RAT, LIVER, S-9, AROCLOR 1254 (10 OR 30%), Method: PREINCUBATION) was “inactive; negative” and the mutagenic call (Test System: AMES SALMONELLA TYPHIMURIUM, Strain/Indicator: TA1535, Metabolic Activation: HAMSTER, LIVER, AROCLOR 1254 (10 OR 30%), Method: PREINCUBATION) was “inactive; negative”. For the same compound, the mutagenic call [3] was “inactive; negative”, the mutagenic call (Test System: AMES SALMONELLA TYPHIMURIUM, Strain/Indicator: TA1535, Metabolic Activation: RAT, LIVER, S-9, AROCLOR 1254 (10 OR 30%), Method: PREINCUBATION) was “inactive; negative” and the mutagenic call (Test System: AMES SALMONELLA TYPHIMURIUM, Strain/Indicator: TA1537, Metabolic Activation: HAMSTER, LIVER, S-9, AROCLOR 1254 (10%), Method: PREINCUBATION) was “inactive; negative”. The mutagenic call (Test System: AMES SALMONELLA TYPHIMURIUM, Strain/Indicator: TA1537, Metabolic Activation: NONE, Method: PREINCUBATION) was “inactive; negative” and the mutagenic call (Test System: AMES SALMONELLA TYPHIMURIUM, Strain/Indicator: TA1537, Metabolic Activation: RAT, LIVER, S-9, AROCLOR 1254 (10%), Method: PREINCUBATION) was “inactive; negative”.
For `CC[N+]([O-])=NC`, the mutagenic call (Test System: AMES SALMONELLA TYPHIMURIUM, Strain/Indicator: TA1535, Metabolic Activation: HAMSTER, LIVER, S-9, AROCLOR 1254, Method: PREINCUBATION) was “inactive; negative”, the mutagenic call [3] was “inactive; negative” and the mutagenic call (Test System: AMES SALMONELLA TYPHIMURIUM, Strain/Indicator: TA1535, Metabolic Activation: RAT, LIVER, S-9, AROCLOR 1254, Method: PREINCUBATION) was “inactive; negative”.
`Cc1nc2c(C)c(C)c3c(nc(N)n3C)c2nc1C` was tested, and the mutagenic call (Test System: AMES SALMONELLA TYPHIMURIUM, Strain/Indicator: TA98, Metabolic Activation: RAT, LIVER, S-9, AROCLOR 1254, Method: STANDARD PLATE) was “active; positive”.
With `O=C([O-])[O-].[Mn+2]` the mutagenic call [1] was “inactive; negative”, the mutagenic call (Test System: AMES SALMONELLA TYPHIMURIUM, Strain/Indicator: TA97, Metabolic Activation: S-9, Method: PREINCUBATION) was “inactive; negative” and the mutagenic call [4] was “inactive; negative”. For the same compound, the mutagenic call (Test System: AMES SALMONELLA TYPHIMURIUM, Strain/Indicator: TA102, Metabolic Activation: S-9, Method: PREINCUBATION) was “inactive; negative”.
For `O/N=C/C=N/O`, the mutagenic call (Test System: AMES SALMONELLA TYPHIMURIUM, Strain/Indicator: TA102, Metabolic Activation: RAT, LIVER, S-9, PHENOBARBITAL AND 5,6-BENZOFLAVONE, Method: STANDARD PLATE) was “inactive; negative”, the mutagenic call (Test System: AMES SALMONELLA TYPHIMURIUM, Strain/Indicator: TA2638, Metabolic Activation: RAT, LIVER, S-9, PHENOBARBITAL AND 5,6-BENZOFLAVONE, Method: STANDARD PLATE) was “inactive; negative” and the mutagenic call (Test System: E. COLI, Strain/Indicator: WP2 (PKM101), Metabolic Activation: RAT, LIVER, S-9, PHENOBARBITAL AND 5,6-BENZOFLAVONE, Method: STANDARD PLATE) was “inactive; negative”. The mutagenic call (Test System: E. COLI, Strain/Indicator: WP2 UVRA (PKM101), Metabolic Activation: RAT, LIVER, S-9, PHENOBARBITAL AND 5,6-BENZOFLAVONE, Method: STANDARD PLATE) was “active; positive”.
In the case of `CCCCCC(=O)OCC`, the mutagenic call [1] is reported as “inactive; negative”, the mutagenic call (Test System: AMES SALMONELLA TYPHIMURIUM, Strain/Indicator: TA97, Metabolic Activation: RAT, LIVER, S-9, AROCLOR 1254, Method: PREINCUBATION) is reported as “inactive; negative” and the mutagenic call [4] is reported as “inactive; negative”. The mutagenic call (Test System: AMES SALMONELLA TYPHIMURIUM, Strain/Indicator: TA102, Metabolic Activation: RAT, LIVER, S-9, AROCLOR 1254, Method: PREINCUBATION) was “inactive; negative”.
In the case of `Nc1c(N=Nc2ccc([N+](=O)[O-])cc2)c(S(=O)(=O)O)cc2c1C(=O)/C(=N\Nc1ccc(-c3ccc(NN=C4C=CC(=O)C=C4)cc3)cc1)C(S(=O)(=O)O)=C2`, the mutagenic call (Test System: AMES SALMONELLA TYPHIMURIUM, Strain/Indicator: TA98, Metabolic Activation: HAMSTER, LIVER, S-9, Method: PREINCUBATION (PRIVAL METHOD)) is reported as “active; positive”, the mutagenic call [5] is reported as “inactive; negative” and the mutagenic call (Test System: AMES SALMONELLA TYPHIMURIUM, Strain/Indicator: TA98, Metabolic Activation: RAT, LIVER, S-9, PHENOBARBITAL, Method: STANDARD PLATE) is reported as “inactive; negative”. The mutagenic call [6] was “inactive; negative” and the mutagenic call (Test System: AMES SALMONELLA TYPHIMURIUM, Strain/Indicator: TA100, Metabolic Activation: RAT, LIVER, S-9, PHENOBARBITAL, Method: STANDARD PLATE) was “inactive; negative”.
`Cc1ccc(N(N)c2ccc(C)cc2)cc1` was tested, and the mutagenic call [6] was “inactive; negative”, the mutagenic call (Test System: AMES SALMONELLA TYPHIMURIUM, Strain/Indicator: TA100, Metabolic Activation: RAT, LIVER, S-9, AROCLOR 1254, Method: STANDARD PLATE) was “active; positive” and the mutagenic call (Test System: AMES SALMONELLA TYPHIMURIUM, Strain/Indicator: TA102, Metabolic Activation: NONE, Method: STANDARD PLATE) was “active; positive”. The mutagenic call (Test System: AMES SALMONELLA TYPHIMURIUM, Strain/Indicator: TA102, Metabolic Activation: RAT, LIVER, S-9, AROCLOR 1254, Method: STANDARD PLATE) was “active; positive”.
`CN(CC(N)=O)C(=O)N(CCCl)N=O` was tested, and the mutagenic call (Test System: Mouse lymphoma, Strain/Indicator: L5178Y (tk+/tk-), Metabolic Activation: None, Method: Suspension/plate) was “active; positive” and the mutagenic call (Test System: Mouse lymphoma, Strain/Indicator: L5178Y (tk+/tk-), Metabolic Activation: Rat, Liver, S-9, Aroclor 1254, Method: Suspension/plate) was “active; positive”.
In the case of `C=C1CC[C@H]2[C@@H](c3c(C)c(O)c4c(c31)C(=O)[C@@H](C)C4)C2(C)C`, the mutagenic call [5] is reported as “inactive; negative”, the mutagenic call (Test System: AMES SALMONELLA TYPHIMURIUM, Strain/Indicator: TA98, Method: STANDARD PLATE) is reported as “inactive; negative” and the mutagenic call [6] is reported as “inactive; negative”. For the same compound, the mutagenic call (Test System: AMES SALMONELLA TYPHIMURIUM, Strain/Indicator: TA100, Method: STANDARD PLATE) was “inactive; negative”.
In the case of `Cc1ccc(S(=O)(=O)OC[C@@H]2CO2)cc1`, the mutagenic call [2] is reported as “active; positive”, the mutagenic call [6] is reported as “active; positive” and the mutagenic call (Test System: AMES SALMONELLA TYPHIMURIUM, Strain/Indicator: TA100, Metabolic Activation: RAT, LIVER, S-9, PCB, Method: PREINCUBATION) is reported as “active; positive”.
